Assay: Solubility of retinoic acid in the liquid lipid
Type: physicochemical
Description: FIG. 2 is the result of the solubility in oil according to the binding of an amine compound and retinoid.
As shown in the Table 2, the maximum concentration of the retinoic acid soluble in the liquid lipid was 0.1% of the weight of the liquid lipid, and when added more the above, the retinoic acid was not dissolved, making it impossible to synthesize capsules (Comparative examples 1, 2, 3). On the other hand, it was determined that the solubility of retinoic acid was increased over 10% of the weight of the liquid lipid, when the amine compound at the same mole concentration as retinoic acid was added during dissolving retinoic acid in the liquid lipid (See Table 2). Through this, the dry weight of the retinoid in the final capsule after washing could be increased 100 times from conventional 0.03% to 3%.

maximum concentration of the retinoic acid soluble in the liquid lipid (without amine compound, caprylic/capryl triglyceride): 0.1 % of the weight of the liquid lipid
Compound: CC1=C(/C=C/C(C)=C/C=C/C(C)=C/C(=O)O)C(C)(C)CCC1 [retinoic acid]
solubility of retinoic acid in the liquid lipid (amine compound added at the same mole concentration as retinoic acid): over 10 % of the weight of the liquid lipid

Source: patent publication US12390402B2, “High-content and sustained-release retinoid capsule, and composition for reducing wrinkles, containing same” (LG HOUSEHOLD & HEALTH CARE LTD., priority 2018, dated 2025)
